Assay results: patent publication US20210254272A1, “TEXTILES HAVING ANTIMICROBIAL PROPERTIES” (Livinguard AG, priority 2015, published 2021)

Test system: E. coli (ATCC 25922)
Test: AATCC Test Method 100-2012 antibacterial activity of the treated textile, after 25 washes and 12 abrasion cycles, contact time 60 minutes
Format: cell-based
Details: for Log reduction of antimicrobial performance: 1% o.w.f; for Log reduction of antimicrobial performance in 100 GSM Polyester fabric / Log reduction of antimicrobial performance in 100 GSM cotton fabric / Log reduction of antimicrobial performance in 300 GSM Polyester fabric / Log reduction of antimicrobial performance in 300 GSM cotton fabric / Performance Test-Log reduction of antimicrobial performance: 2 min; for Performance Test-Log reduction of antimicrobial performance: pad process, single agent 5 gm/lit
Procedure: The antibacterial activity of the textile was tested in accordance with AATCC Test Method 100-2012. Prior to the test, the fabric was cut into coupons of 2×4 inches and washed separately 25 times, and exposed to 12 abrasion cycles, as per US EPA protocol 90072PA4 (described further below). The tests were made against E. coli (ATCC 25922). Contact time was 60 minutes, after inoculating with 10^8 CFU per coupon.

[1] = exhaust 80° C., 60 min, curing 180° C., dosage 0.1% o.w.f
[2] = exhaust 80° C., 60 min, curing 180° C., dosage 0.2% o.w.f
[3] = exhaust 80° C., 60 min, curing 180° C., dosage 0.5% o.w.f
[4] = exhaust 80° C., 60 min, curing 180° C., dosage 0.8% o.w.f
[5] = exhaust 80° C., 60 min, curing 180° C., dosage 1.0% o.w.f

With Silver the “Log reduction of antimicrobial performance of each active ingredient” value (“Log reduction … of each active ingredient” for short) (exhaust 60° C., solution dosage 1% o.w.f, process time 60 min) was 1.1 Log, the “Log reduction … of each active ingredient” value (exhaust 60° C., solution dosage 1% o.w.f, process time 90 min) was 1.3 Log and the “Log reduction … of each active ingredient” value (exhaust 60° C., solution dosage 1% o.w.f, process time 120 min) was 1.5 Log. For the same substance, the “Log reduction … of each active ingredient” value (exhaust 60° C., solution dosage 1% o.w.f, process time 180 min) was 1.8 Log, the “Log reduction … of each active ingredient” value (exhaust 60° C., solution dosage 1% o.w.f, process time 240 min) was 1.75 Log and the “Log reduction of antimicrobial performance” value (exhaust 80° C., 60 min, curing 170° C., curing dwell time 0.5 min) was 0.2 Log. For the same substance, the “Log reduction of antimicrobial performance” value (exhaust 80° C., 60 min, curing 170° C., curing dwell time 1.0 min) was 0.5 Log, the “Log reduction of antimicrobial performance” value (exhaust 80° C., 60 min, curing 170° C., curing dwell time 1.5 min) was 0.7 Log and the “Log reduction of antimicrobial performance” value (exhaust 80° C., 60 min, curing 170° C., curing dwell time 2.0 min) was 1.6 Log. The “Log reduction of antimicrobial performance” value (exhaust 80° C., 60 min, curing 170° C., curing dwell time 2.5 min) was 1.1 Log, the “Log reduction of antimicrobial performance” value (exhaust 80° C., 60 min, curing 170° C., curing dwell time 3.0 min) was 0.7 Log and the “Log reduction of antimicrobial performance” value (exhaust 80° C., 60 min, curing 180° C., curing dwell time 0.5 min) was 1.1 Log. For the same substance, the “Log reduction of antimicrobial performance” value (exhaust 80° C., 60 min, curing 180° C., curing dwell time 1.0 min) was 1.3 Log, the “Log reduction of antimicrobial performance” value (exhaust 80° C., 60 min, curing 180° C., curing dwell time 1.5 min) was 1.5 Log and the “Log reduction of antimicrobial performance” value (exhaust 80° C., 60 min, curing 180° C., curing dwell time 2.0 min) was 3.8 Log. For the same substance, the “Log reduction of antimicrobial performance” value (exhaust 80° C., 60 min, curing 180° C., curing dwell time 2.5 min) was 3.7 Log, the “Log reduction of antimicrobial performance” value (exhaust 80° C., 60 min, curing 180° C., curing dwell time 3.0 min) was 3.5 Log and the “Log reduction of antimicrobial performance” value (exhaust 80° C., 60 min, curing 190° C., curing dwell time 0.5 min) was 0.6 Log. The “Log reduction of antimicrobial performance” value (exhaust 80° C., 60 min, curing 190° C., curing dwell time 1.0 min) was 0.9 Log, the “Log reduction of antimicrobial performance” value (exhaust 80° C., 60 min, curing 190° C., curing dwell time 1.5 min) was 1.5 Log and the “Log reduction of antimicrobial performance” value (exhaust 80° C., 60 min, curing 190° C., curing dwell time 2.0 min) was 2.79 Log. For the same substance, the “Log reduction of antimicrobial performance” value (exhaust 80° C., 60 min, curing 190° C., curing dwell time 2.5 min) was 2.2 Log, the “Log reduction of antimicrobial performance” value (exhaust 80° C., 60 min, curing 190° C., curing dwell time 3.0 min) was 1.1 Log and the “Log reduction of antimicrobial performance” value (exhaust 80° C., 60 min, curing temperature 100 ° C.) was 0.21 Log. For the same substance, the “Log reduction of antimicrobial performance” value (exhaust 80° C., 60 min, curing temperature 120 ° C.) was 0.32 Log, the “Log reduction of antimicrobial performance” value (exhaust 80° C., 60 min, curing temperature 140 ° C.) was 0.99 Log and the “Log reduction of antimicrobial performance” value (exhaust 80° C., 60 min, curing temperature 160 ° C.) was 1.04 Log. The “Log reduction of antimicrobial performance” value (exhaust 80° C., 60 min, curing temperature 165 ° C.) was 1.12 Log, the “Log reduction of antimicrobial performance” value (exhaust 80° C., 60 min, curing temperature 170 ° C.) was 1.59 Log and the “Log reduction of antimicrobial performance” value (exhaust 80° C., 60 min, curing temperature 175 ° C.) was 2.05 Log. For the same substance, the “Log reduction of antimicrobial performance” value (exhaust 80° C., 60 min, curing temperature 180 ° C.) was 2.78 Log, the “Log reduction of antimicrobial performance” value (exhaust 80° C., 60 min, curing temperature 185 ° C.) was 2.79 Log and the “Log reduction of antimicrobial performance” value (exhaust 80° C., 60 min, curing temperature 190 ° C.) was 2.8 Log. The “Log reduction of antimicrobial performance” value (exhaust 80° C., 60 min, curing temperature 195 ° C.) was 2.82 Log, the “Log reduction of antimicrobial performance in 100 GSM Polyester fabric” value (“Log reduction … in 100 GSM Polyester fabric” below) [1] was 0.56 Log and the “Log reduction of antimicrobial performance in 100 GSM cotton fabric” value (“Log reduction … in 100 GSM cotton fabric” for short) [1] was 0.55 Log. For the same substance, the “Log reduction of antimicrobial performance in 300 GSM Polyester fabric” value (shortened to “Log reduction … in 300 GSM Polyester fabric”) [1] was 0.54 Log, the “Log reduction of antimicrobial performance in 300 GSM cotton fabric” value (shortened to “Log reduction … in 300 GSM cotton fabric”) [1] was 0.57 Log and the “Log reduction … in 100 GSM Polyester fabric” value [2] was 1.45 Log. The “Log reduction … in 100 GSM cotton fabric” value [2] was 1.35 Log, the “Log reduction … in 300 GSM Polyester fabric” value [2] was 1.48 Log and the “Log reduction … in 300 GSM cotton fabric” value [2] was 1.35 Log. For the same substance, the “Log reduction … in 100 GSM Polyester fabric” value [3] was 1.77 Log, the “Log reduction … in 100 GSM cotton fabric” value [3] was 1.67 Log and the “Log reduction … in 300 GSM Polyester fabric” value [3] was 1.79 Log. The “Log reduction … in 300 GSM cotton fabric” value [3] was 1.67 Log, the “Log reduction … in 100 GSM Polyester fabric” value [4] was 1.85 Log and the “Log reduction … in 100 GSM cotton fabric” value [4] was 1.84 Log. The “Log reduction … in 300 GSM Polyester fabric” value [4] was 1.85 Log, the “Log reduction … in 300 GSM cotton fabric” value [4] was 1.87 Log and the “Log reduction … in 100 GSM Polyester fabric” value [5] was 2.68 Log. The “Log reduction … in 100 GSM cotton fabric” value [5] was 2.87 Log, the “Log reduction … in 300 GSM Polyester fabric” value [5] was 2.65 Log and the “Log reduction … in 300 GSM cotton fabric” value [5] was 2.88 Log. For the same substance, the “Log reduction … of each active ingredient” value (exhaust 80° C., 60 min, dosage 1% o.w.f (test up to 5% o.w.f)) was 2.35 Log, the “Log reduction … of each active ingredient” value (exhaust 80° C., 60 min, dosage 2% o.w.f) was 2.36 Log and the “Log reduction … of each active ingredient” value (exhaust 80° C., 60 min, dosage 3% o.w.f) was 2.37 Log. The “Log reduction … of each active ingredient” value (exhaust 80° C., 60 min, dosage 4% o.w.f) was 2.38 Log, the “Log reduction … of each active ingredient” value (exhaust 80° C., 60 min, dosage 5% o.w.f) was 2.41 Log and the “Log reduction … of each active ingredient” value (exhaust 80 ° C., solution dosage 1% o.w.f, process time 10 min) was 0.5 Log. For the same substance, the “Log reduction … of each active ingredient” value (exhaust 80 ° C., solution dosage 1% o.w.f, process time 20 min) was 1 Log, the “Log reduction … of each active ingredient” value (exhaust 80 ° C., solution dosage 1% o.w.f, process time 30 min) was 1.4 Log and the “Log reduction … of each active ingredient” value (exhaust 80 ° C., solution dosage 1% o.w.f, process time 40 min) was 1.9 Log. The “Log reduction … of each active ingredient” value (exhaust 80 ° C., solution dosage 1% o.w.f, process time 50 min) was 2.4 Log, the “Log reduction … of each active ingredient” value (exhaust 80 ° C., solution dosage 1% o.w.f, process time 60 min) was 2.8 Log and the “Log reduction … of each active ingredient” value (exhaust 80 ° C., solution dosage 1% o.w.f, process time 70 min) was 2.8 Log. For the same substance, the “Log reduction … of each active ingredient” value (exhaust 80 ° C., solution dosage 1% o.w.f, process time 80 min) was 2.8 Log, the “Log reduction … of each active ingredient” value (exhaust 80 ° C., solution dosage 1% o.w.f, process time 90 min) was 2.9 Log and the “Performance Test-Log reduction of antimicrobial performance” value (“Performance Test-Log reduction” below) (curing 120° C.) was 0.02 Log. The “Performance Test-Log reduction” value (curing 140° C.) was 0.24 Log, the “Performance Test-Log reduction” value (curing 150° C.) was 0.31 Log and the “Performance Test-Log reduction” value (curing 160° C.) was 0.53 Log.
